Data reported in patent US20180371044A1, “PEPTIDOMIMETIC MACROCYCLES” (Aileron Therapeutics, Inc., priority 2015, published 2018).
Where a SMILES comes first, the peptide text is derived from it. Bridges are numbered along the chain shown (N, C = ends). [ ]: non-standard residue; d: D form. NMeY = CN[C@@H](Cc1ccc(O)cc1)C(=O)O; S5 = C=CCCC[C@](C)(N)C(=O)O; Nle = CCCC[C@H](N)C(=O)O; Aib = CC(C)(N)C(=O)O

The compounds below were run against T1, human GHRH receptor (hGHRHR) (Homo sapiens, UniProt Q02643) (assay: GHRHR agonism measured by cAMP (HTRF) in human 293 cells expressing hGHRHR). Details: 30 min at RT.
T1 construct: expressed in transfected cells; host or cells: Human 293 cells
T1 sequence (Q02643 23-423): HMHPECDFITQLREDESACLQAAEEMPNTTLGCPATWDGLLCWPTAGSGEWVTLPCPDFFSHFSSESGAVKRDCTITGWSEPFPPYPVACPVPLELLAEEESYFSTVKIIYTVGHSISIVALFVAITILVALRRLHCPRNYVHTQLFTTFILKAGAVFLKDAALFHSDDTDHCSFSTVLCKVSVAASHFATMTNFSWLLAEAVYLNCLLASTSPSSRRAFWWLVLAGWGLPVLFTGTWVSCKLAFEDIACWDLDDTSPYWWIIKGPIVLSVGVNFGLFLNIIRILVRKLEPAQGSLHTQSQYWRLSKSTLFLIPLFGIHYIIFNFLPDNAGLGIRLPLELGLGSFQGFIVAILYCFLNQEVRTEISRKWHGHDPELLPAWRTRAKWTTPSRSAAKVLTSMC
Type: cell-based
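Note: receptor expressed transiently or stably, cells stimulated in serum-free medium, EC50 from a non-linear dose-response fit, maximal response defined by reference GHRH stimulation.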
Method: GHRH (1-29) and cross-linked peptidomimetic macrocycles were tested for agonism at the human GHRH receptor (hGHRHR) at various concentrations. Human 293 cells transiently or stably expressing hGHRHR were detached from cell culture flasks with versene (Life Technologies™), suspended in serum-free medium (50 k cells/assay point), and stimulated for 30 min at RT with GHRH (1-29) (Bachem™) or cross-linked peptidomimetic macrocycles. cAMP was quantified using an HTRF®-based assay (CisBio) and used according to the manufacturer's instructions. An EC50 for each agonist was calculated from a non-linear fit of response vs dose (GraphPad™ Prism). The maximum response was determined by stimulating with 10 μM GHRH (1-29). (+=>50 nm; ++=>25-50 nm; +++=>10-25 nm; ++++=>1-10 nm; +++++=≤1 nm).

SMILES	EC50 [µM]
CCCC[C@H](NC(=O)[C@@H](NC(=O)[C@H](CC(=O)O)NC(=O)[C@H](CCC(N)=O)NC(=O)[C@H](CC(C)C)NC(=O)[C@H](C)NC(=O)[C@H](CCCCN)NC(=O)[C@H](CCCNC(=N)N)NC(=O)[C@H](C)NC(=O)[C@H](CO)NC(=O)[C@H](CC(C)C)NC(=O)[C@]1(C)CCCC=CCCC[C@](C)(NC(=O)[C@H](CCCNC(=N)N)NC(=O)[C@H](Cc2ccc(O)cc2)NC(=O)[C@H](CO)NC(=O)[C@H](C)NC(=O)[C@@H](NC(=O)[C@H](Cc2ccccc2)NC(=O)[C@@H](NC(=O)[C@H](C)NC(=O)[C@H](CC(=O)O)NC(=O)[C@H](C)NC(=O)[C@H](Cc2ccc(O)cc2)NC)[C@@H](C)CC)[C@@H](C)O)C(=O)N[C@@H](C(C)C)C(=O)N[C@@H](CC(C)C)C(=O)N[C@@H](C)C(=O)N1)[C@@H](C)CC)C(=O)N[C@@H](CO)C(=O)N[C@@H](CCCNC(=N)N)C(N)=O [SP-11] (H-[NMeY]ADAIFTASYR[S5]VLA[S5]LSARKALQDI[Nle]SR-NH2; staple 12-16)	0.01 to 0.025
CCCC[C@H](NC(=O)[C@@H](NC(=O)[C@H](CC(=O)O)NC(=O)[C@H](CCC(N)=O)NC(=O)[C@H](CC(C)C)NC(=O)[C@H](C)NC(=O)[C@]1(C)CCCC=CCCC[C@](C)(NC(=O)[C@H](CCC(N)=O)NC(=O)[C@H](C)NC(=O)[C@H](CC(C)C)NC(=O)[C@@H](NC(=O)[C@H](CCCCN)NC(=O)[C@H](CCCNC(=N)N)NC(=O)[C@H](Cc2ccc(O)cc2)NC(=O)[C@H](CO)NC(=O)[C@H](C)NC(=O)[C@@H](NC(=O)[C@H](Cc2ccccc2)NC(=O)[C@@H](NC(=O)[C@H](C)NC(=O)[C@H](CC(=O)O)NC(=O)[C@H](C)NC(=O)[C@H](Cc2ccc(O)cc2)NC)[C@@H](C)CC)[C@@H](C)O)C(C)C)C(=O)N[C@@H](CO)C(=O)N[C@@H](C)C(=O)N[C@@H](CCCNC(=N)N)C(=O)N1)[C@@H](C)CC)C(=O)N[C@@H](CO)C(=O)N[C@@H](CCCNC(=N)N)C(N)=O [SP-15] (H-[NMeY]ADAIFTASYRKVLAQ[S5]SAR[S5]ALQDI[Nle]SR-NH2; staple 17-21)	≤ 0.001
CCCC[C@H](NC(=O)[C@@H](NC(=O)[C@H](CC(=O)O)NC(=O)[C@H](CCC(N)=O)NC(=O)[C@H](CC(C)C)NC(=O)[C@H](C)NC(=O)[C@H](CCCCN)NC(=O)[C@H](CCCNC(=N)N)NC(=O)[C@]1(C)CCCC=CCCC[C@](C)(NC(=O)[C@H](CC(C)C)NC(=O)[C@@H](NC(=O)[C@H](CCCCN)NC(=O)[C@H](CCCNC(=N)N)NC(=O)[C@H](Cc2ccc(O)cc2)NC(=O)[C@H](CO)NC(=O)[C@H](C)NC(=O)[C@@H](NC(=O)[C@H](Cc2ccccc2)NC(=O)[C@@H](NC(=O)[C@H](C)NC(=O)[C@H](CC(=O)O)NC(=O)[C@H](C)NC(=O)[C@H](Cc2ccc(O)cc2)NC)[C@@H](C)CC)[C@@H](C)O)C(C)C)C(=O)N[C@@H](CCC(N)=O)C(=O)N[C@@H](CC(C)C)C(=O)N[C@@H](CO)C(=O)N1)[C@@H](C)CC)C(=O)N[C@@H](CO)C(=O)N[C@@H](CCCNC(=N)N)C(N)=O [SP-14] (H-[NMeY]ADAIFTASYRKVL[S5]QLS[S5]RKALQDI[Nle]SR-NH2; staple 15-19)	0.001 to 0.01
CCCC[C@H](NC(=O)[C@@H](NC(=O)[C@H](CC(=O)O)NC(=O)[C@H](CCC(N)=O)NC(=O)[C@H](CC(C)C)NC(=O)[C@]1(C)CCCC=CCCC[C@](C)(NC(=O)[C@H](CC(C)C)NC(=O)[C@H](CCC(N)=O)NC(=O)[C@H](C)NC(=O)[C@H](CC(C)C)NC(=O)[C@@H](NC(=O)[C@H](CCCCN)NC(=O)[C@H](CCCNC(=N)N)NC(=O)[C@H](Cc2ccc(O)cc2)NC(=O)[C@H](CO)NC(=O)[C@H](C)NC(=O)[C@@H](NC(=O)[C@H](Cc2ccccc2)NC(=O)[C@@H](NC(=O)[C@H](C)NC(=O)[C@H](CC(=O)O)NC(=O)[C@H](C)NC(=O)[C@H](Cc2ccc(O)cc2)NC)[C@@H](C)CC)[C@@H](C)O)C(C)C)C(=O)N[C@@H](C)C(=O)N[C@@H](CCCNC(=N)N)C(=O)N[C@@H](CCCCN)C(=O)N1)[C@@H](C)CC)C(=O)N[C@@H](CO)C(=O)N[C@@H](CCCNC(=N)N)C(N)=O [SP-16] (H-[NMeY]ADAIFTASYRKVLAQL[S5]ARK[S5]LQDI[Nle]SR-NH2; staple 18-22)	0.001 to 0.01

Next, values leading:

EC50 [µM]	SMILES
0.001 to 0.01	CCCC[C@H](NC(=O)[C@@H](NC(=O)[C@H](CC(=O)O)NC(=O)[C@H](CCC(N)=O)NC(=O)[C@H](CC(C)C)NC(=O)[C@H](C)NC(=O)[C@H](CCCCN)NC(=O)[C@H](CCCNC(=N)N)NC(=O)[C@H](C)NC(=O)[C@H](CO)NC(=O)[C@H](CC(C)C)NC(=O)[C@H](CCC(N)=O)NC(=O)[C@H](C)NC(=O)[C@H](CC(C)C)NC(=O)[C@@H](NC(=O)[C@H](CCCCN)NC(=O)[C@H](CCCNC(=N)N)NC(=O)[C@H](Cc1ccc(O)cc1)NC(=O)[C@H](CO)NC(=O)[C@@H](NC(=O)[C@@H](NC(=O)[C@H](Cc1ccccc1)NC(=O)[C@@H](NC(=O)[C@H](C)NC(=O)[C@H](CC(=O)O)NC(=O)[C@H](C)NC(=O)[C@H](Cc1ccc(O)cc1)NC)[C@@H](C)CC)[C@@H](C)O)[C@@H](C)O)C(C)C)[C@@H](C)CC)C(=O)N[C@@H](CO)C(=O)N[C@@H](CCCNC(=N)N)C(N)=O [SP-42] (H-[NMeY]ADAIFTTSYRKVLAQLSARKALQDI[Nle]SR-NH2)
0.001 to 0.01	CCCC[C@H](NC(=O)[C@@H](NC(=O)[C@H](CC(=O)O)NC(=O)[C@H](C)NC(=O)[C@H](CC(C)C)NC(=O)[C@H](C)NC(=O)[C@H](CCCCN)NC(=O)[C@H](CCCNC(=N)N)NC(=O)[C@H](C)NC(=O)C(C)(C)NC(=O)[C@H](CC(C)C)NC(=O)[C@H](CCC(N)=O)NC(=O)[C@H](C)NC(=O)[C@H](CC(C)C)NC(=O)[C@@H](NC(=O)[C@H](CCCCN)NC(=O)[C@H](CCCNC(=N)N)NC(=O)[C@H](Cc1ccc(O)cc1)NC(=O)[C@H](CO)NC(=O)[C@H](C)NC(=O)[C@@H](NC(=O)[C@H](Cc1ccccc1)NC(=O)[C@@H](NC(=O)[C@H](C)NC(=O)[C@H](CC(=O)O)NC(=O)[C@H](C)NC(=O)[C@H](Cc1ccc(O)cc1)NC)[C@@H](C)CC)[C@@H](C)O)C(C)C)[C@@H](C)CC)C(=O)N[C@@H](CO)C(=O)N[C@@H](CCCNC(=N)N)C(N)=O [SP-54] (H-[NMeY]ADAIFTASYRKVLAQL[Aib]ARKALADI[Nle]SR-NH2)
0.001 to 0.01	CCCC[C@H](NC(=O)[C@@H](NC(=O)[C@H](CC(=O)O)NC(=O)C(C)(C)NC(=O)[C@H](CC(C)C)NC(=O)[C@H](C)NC(=O)[C@H](CCCCN)NC(=O)[C@H](CCCNC(=N)N)NC(=O)[C@H](C)NC(=O)C(C)(C)NC(=O)[C@H](CC(C)C)NC(=O)[C@H](CCC(N)=O)NC(=O)[C@H](C)NC(=O)[C@H](CC(C)C)NC(=O)[C@@H](NC(=O)[C@H](CCCCN)NC(=O)[C@H](CCCNC(=N)N)NC(=O)[C@H](Cc1ccc(O)cc1)NC(=O)[C@H](CO)NC(=O)C(C)(C)NC(=O)[C@@H](NC(=O)[C@H](Cc1ccccc1)NC(=O)[C@@H](NC(=O)[C@H](C)NC(=O)[C@H](CC(=O)O)NC(=O)[C@H](C)NC(=O)[C@H](Cc1ccc(O)cc1)NC)[C@@H](C)CC)[C@@H](C)O)C(C)C)[C@@H](C)CC)C(=O)N[C@@H](CO)C(=O)N[C@@H](CCCNC(=N)N)C(N)=O [SP-55] (H-[NMeY]ADAIFT[Aib]SYRKVLAQL[Aib]ARKAL[Aib]DI[Nle]SR-NH2)
